Source: patent US12139492B2 (Endotarget Inc., priority 2021, dated 2024)

What was measured:
BTK [1] = target: T1, BTK (Homo sapiens, UniProt Q06187); experiment: Degradation of BTK protein in Namalwa cells (Western blot; DC50, Dmax); settings: Namalwa B lymphocyte cells, Western blot; for degradation of BTK protein: various concentrations, 24 hours
Mino cells = experiment: Antiproliferative effect, MTS cell viability assay, Mino cells; type: cell-based; settings: Homo sapiens, MINO, Mino mantle cell lymphoma cells; read-out: IC50 (anti-proliferation) Mino cells
Summary of the method: (§1)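 Absorbance at 490 nm of formazan, formed by metabolically active cells from MTS tetrazolium, served as the viability measure after a 72 h treatment across a 0.001–10 μM concentration series plus untreated control.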

JeKo-1 cells = experiment: Antiproliferative effect, MTS cell viability assay, JeKo-1 cells; type: cell-based; settings: Homo sapiens; JeKo-1 mantle cell lymphoma cells; read-out: IC50 (anti-proliferation) JeKO-1 cells
Summary of the method: as §1

BTK [2] = target: T1, BTK; experiment: BTK degradation, DC50 and Dmax of Table 1 (cell line not given); type: cell-based; design: endogenous in cells; settings: for DC50: concentration giving 50% reduction of BTK expression level

T1 sequence (Q06187 whole entry): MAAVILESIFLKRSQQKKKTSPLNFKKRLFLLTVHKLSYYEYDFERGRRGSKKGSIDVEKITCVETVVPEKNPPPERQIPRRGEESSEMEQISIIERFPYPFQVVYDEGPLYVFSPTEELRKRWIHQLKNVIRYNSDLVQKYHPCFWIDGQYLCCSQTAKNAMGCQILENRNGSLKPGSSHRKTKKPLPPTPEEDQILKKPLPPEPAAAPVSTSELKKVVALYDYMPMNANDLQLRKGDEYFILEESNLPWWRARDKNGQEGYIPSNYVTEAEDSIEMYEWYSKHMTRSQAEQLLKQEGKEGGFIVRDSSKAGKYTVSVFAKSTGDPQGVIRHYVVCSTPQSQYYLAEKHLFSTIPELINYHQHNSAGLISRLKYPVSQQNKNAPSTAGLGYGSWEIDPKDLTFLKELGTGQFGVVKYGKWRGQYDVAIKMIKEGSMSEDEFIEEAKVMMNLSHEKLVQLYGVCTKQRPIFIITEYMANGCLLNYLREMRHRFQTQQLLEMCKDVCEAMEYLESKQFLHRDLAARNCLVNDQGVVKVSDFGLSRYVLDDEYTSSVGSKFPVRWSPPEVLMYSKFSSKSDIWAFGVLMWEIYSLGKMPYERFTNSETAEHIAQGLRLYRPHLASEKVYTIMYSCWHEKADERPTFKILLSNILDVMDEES

| Compound | degradation of BTK protein at 10^−6 M (BTK [1]) | degradation of BTK protein (BTK [1]) | IC50 (Mino cells) | IC50 (JeKo-1 cells) | Dmax (BTK [2]) | DC50 (BTK [2]) |
| --- | --- | --- | --- | --- | --- | --- |
| Nc1ncnc2c1c(-c1ccc(Oc3ccccc3)cc1)nn2C1CCN(CC2CCN(C(=O)N3CCC(CN4CCN(c5ccc6c(c5)C(=O)N(C5CCC(=O)NC5=O)C6=O)CC4)CC3)CC2)CC1 (stereo not shown) [Compound 41, 5-(4-((1-(4-((4-(4-amino-3-(4-phenoxyphenyl)-1H-pyrazolo(3,4-d)pyrimidin-1-yl)piperidin-1-yl)methyl)piperidine-1-carbonyl)piperidin-4-yl)methyl)piperazin-1-yl)-2-(2,6-dioxopiperidin-3-yl)isoindoline-1,3-dione] | degradation | dose-dependent degradation | < 1000 nM | 1000 to 10000 nM | > 90% | 10 to 50 nM |
| Nc1ncnc2c1c(-c1ccc(Oc3ccccc3)cc1)nn2[C@@H]1CCCN(CC2CCN(C(=O)N3CCC(CN4CCN(c5ccc6c(c5)C(=O)N(C5CCC(=O)NC5=O)C6=O)CC4)CC3)CC2)C1 (stereo partly drawn) [Compound 31, 5-(4-((1-(4-(((R)-3-(4-amino-3-(4-phenoxyphenyl)-1H-pyrazolo(3,4-d)pyrimidin-1-yl)piperidin-1-yl)methyl)piperidine-1-carbonyl)piperidin-4-yl)methyl)piperazin-1-yl)-2-(2,6-dioxopiperidin-3-yl)isoindoline-1,3-dione] | degradation | dose-dependent degradation | 1000 to 10000 nM | 1000 to 10000 nM | > 90% | 10 to 50 nM |
| Nc1ncnc2c1c(-c1ccc(Oc3ccccc3)cc1)nn2C1CCN(C(=O)N2CCC(C3CCN(c4ccc5c(c4)C(=O)N(C4CCC(=O)NC4=O)C5=O)CC3)CC2)CC1 (stereo not shown) [Compound 79, 5-(1′-(4-(4-amino-3-(4-phenoxyphenyl)-1H-pyrazolo(3,4-d)pyrimidin-1-yl)piperidine-1-carbonyl)-(4,4′-bipiperidin)-1-yl)-2-(2,6-dioxopiperidin-3-yl)isoindoline-1,3-dione] | degradation |  | > 10000 nM | > 10000 nM | > 75% | > 50 nM |
| Nc1ncnc2c1c(-c1ccc(Oc3ccccc3)cc1)nn2C1CCN(C(=O)N2CCC(N3CCN(c4ccc5c(c4)C(=O)N(C4CCC(=O)NC4=O)C5=O)CC3)CC2)CC1 (stereo not shown) [Compound 81, 5-(4-(1-(4-(4-amino-3-(4-phenoxyphenyl)-1H-pyrazolo(3,4-d)pyrimidin-1-yl)piperidine-1-carbonyl)piperidin-4-yl)piperazin-1-yl)-2-(2,6-dioxopiperidin-3-yl)isoindoline-1,3-dione] |  | dose-dependent degradation | > 10000 nM | > 10000 nM | > 75% | > 50 nM |
| Nc1ncnc2c1c(-c1ccc(Oc3ccccc3)cc1)nn2[C@@H]1CCCN(C(=O)N2CCC(CCN3CCN(c4ccc5c(c4)C(=O)N(C4CCC(=O)NC4=O)C5=O)CC3)CC2)C1 (stereo partly drawn) [Compound 63, 5-(4-(2-(1-((R)-3-(4-amino-3-(4-phenoxyphenyl)-1H-pyrazolo(3,4-d)pyrimidin-1-yl)piperidine-1-carbonyl)piperidin-4-yl)ethyl)piperazin-1-yl)-2-(2,6-dioxopiperidin-3-yl)isoindoline-1,3-dione] | degradation | dose-dependent degradation | 1000 to 10000 nM | 1000 to 10000 nM | > 90% | < 10 nM |
| Nc1ncnc2c1c(-c1ccc(Oc3ccccc3)cc1)nn2[C@@H]1CCCN(C(=O)N2CCC(N3CCN(c4ccc5c(c4)C(=O)N(C4CCC(=O)NC4=O)C5=O)CC3)CC2)C1 (stereo partly drawn) [Compound 51, 5-(4-(1-((R)-3-(4-amino-3-(4-phenoxyphenyl)-1H-pyrazolo(3,4-d)pyrimidin-1-yl)piperidine-1-carbonyl)piperidin-4-yl)piperazin-1-yl)-2-(2,6-dioxopiperidin-3-yl)isoindoline-1,3-dione] | degradation | dose-dependent degradation | < 1000 nM | < 1000 nM | > 90% | < 10 nM |
| Nc1ncnc2c1c(-c1ccc(Oc3ccccc3)cc1)nn2C1CCN(C(=O)N2CCC(C3CCN(c4ccc5c(c4)CN(C4CCC(=O)NC4=O)C5=O)CC3)CC2)CC1 (stereo not shown) [Compound 80, 3-(5-(1′-(4-(4-amino-3-(4-phenoxyphenyl)-1H-pyrazolo[3,4-d]pyrimidin-1-yl)piperidine-1-carbonyl)-[4,4′-bipiperidin]-1-yl)-1-oxoisoindolin-2-yl)piperidine-2,6-dione] | degradation |  | > 10000 nM | > 10000 nM | > 75% | > 50 nM |
| Nc1ncnc2c1c(-c1ccc(Oc3ccccc3)cc1)nn2C1CCN(C(=O)N2CCC(CCN3CCN(c4ccc5c(c4)C(=O)N(C4CCC(=O)NC4=O)C5=O)CC3)CC2)CC1 (stereo not shown) [Compound 93, 5-(4-(2-(1-(4-(4-amino-3-(4-phenoxyphenyl)-1H-pyrazolo(3,4-d)pyrimidin-1-yl)piperidine-1-carbonyl)piperidin-4-yl)ethyl)piperazin-1-yl)-2-(2,6-dioxopiperidin-3-yl)isoindoline-1,3-dione] | degradation | dose-dependent degradation | 1000 to 10000 nM | 1000 to 10000 nM | > 90% | 10 to 50 nM |
| Nc1ncnc2c1c(-c1ccc(Oc3ccccc3)cc1)nn2C1CCN(C(=O)N2CCN(CCN3CCN(c4ccc5c(c4)CN(C4CCC(=O)NC4=O)C5=O)CC3)CC2)CC1 (stereo not shown) [Compound 96, 3-(5-(4-(2-(4-(4-(4-amino-3-(4-phenoxyphenyl)-1H-pyrazolo[3,4-d]pyrimidin-1-yl)piperidine-1-carbonyl)piperazin-1-yl)ethyl)piperazin-1-yl)-1-oxoisoindolin-2-yl)piperidine-2,6-dione] |  |  | 1000 to 10000 nM | 1000 to 10000 nM | > 90% | 10 to 50 nM |
| Nc1ncnc2c1c(-c1ccc(Oc3ccccc3)cc1)nn2[C@@H]1CCCN(C(=O)N2CCC(CCC3CCN(c4ccc5c(c4)C(=O)N(C4CCC(=O)NC4=O)C5=O)CC3)CC2)C1 (stereo partly drawn) [Compound 71, 5-(4-(2-(1-((R)-3-(4-amino-3-(4-phenoxyphenyl)-1H-pyrazolo[3,4-d]pyrimidin-1-yl)piperidine-1-carbonyl)piperidin-4-yl)ethyl)piperidin-1-yl)-2-(2,6-dioxopiperidin-3-yl)isoindoline-1,3-dione] |  |  | 1000 to 10000 nM | 1000 to 10000 nM | > 90% | < 10 nM |
| Nc1ncnc2c1c(-c1ccc(Oc3ccccc3)cc1)nn2[C@@H]1CCCN(CC2CCN(CC3CCN(c4ccc5c(c4)CN(C4CCC(=O)NC4=O)C5=O)CC3)CC2)C1 (stereo partly drawn) [Compound 130, 3-(5-(4-((4-(((R)-3-(4-amino-3-(4-phenoxyphenyl)-1H-pyrazolo[3,4-d]pyrimidin-1-yl)piperidin-1-yl)methyl)piperidin-1-yl)methyl)piperidin-1-yl)-1-oxoisoindolin-2-yl)piperidine-2,6-dione] |  |  | 1000 to 10000 nM | 1000 to 10000 nM | > 90% | 10 to 50 nM |
| Nc1ncnc2c1c(-c1ccc(Oc3ccccc3)cc1)nn2C1CCN(C(=O)N2CCC(CCC3CCN(c4ccc5c(c4)CN(C4CCC(=O)NC4=O)C5=O)CC3)CC2)CC1 (stereo not shown) [Compound 102, 3-(5-(4-(2-(1-(4-(4-amino-3-(4-phenoxyphenyl)-1H-pyrazolo[3,4-d]pyrimidin-1-yl)piperidine-1-carbonyl)piperidin-4-yl)ethyl)piperidin-1-yl)-1-oxoisoindolin-2-yl)piperidine-2,6-dione] |  |  | 1000 to 10000 nM | > 10000 nM | > 90% | 10 to 50 nM |
| Nc1ncnc2c1c(-c1ccc(Oc3ccccc3)cc1)nn2C1CCN(CC2CCN(C(=O)N3CCC(CCN4CCN(c5ccc6c(c5)CN(C5CCC(=O)NC5=O)C6=O)CC4)CC3)CC2)CC1 (stereo not shown) [Compound 44, 3-(5-(4-(2-(1-(4-((4-(4-amino-3-(4-phenoxyphenyl)-1H-pyrazolo[3,4-d]pyrimidin-1-yl)piperidin-1-yl)methyl)piperidine-1-carbonyl)piperidin-4-yl)ethyl)piperazin-1-yl)-1-oxoisoindolin-2-yl)piperidine-2,6-dione] |  |  | 1000 to 10000 nM | 1000 to 10000 nM | > 90% | 10 to 50 nM |
| Nc1ncnc2c1c(-c1ccc(Oc3ccccc3)cc1)nn2[C@@H]1CCCN(CC2CCN(CCN3CCC(c4ccc5c(c4)CN(C4CCC(=O)NC4=O)C5=O)CC3)CC2)C1 (stereo partly drawn) [Compound 136, 3-(5-(1-(2-(4-(((R)-3-(4-amino-3-(4-phenoxyphenyl)-1H-pyrazolo[3,4-d]pyrimidin-1-yl)piperidin-1-yl)methyl)piperidin-1-yl)ethyl)piperidin-4-yl)-1-oxoisoindolin-2-yl)piperidine-2,6-dione] |  |  | < 1000 nM | 1000 to 10000 nM | > 75% | < 10 nM |
| Nc1ncnc2c1c(-c1ccc(Oc3ccccc3)cc1)nn2[C@@H]1CCCN(C(=O)N2CCC(CC3CCN(c4ccc5c(c4)C(=O)N(C4CCC(=O)NC4=O)C5=O)CC3)CC2)C1 (stereo partly drawn) [Compound 59, 5-(4-((1-((R)-3-(4-amino-3-(4-phenoxyphenyl)-1H-pyrazolo[3,4-d]pyrimidin-1-yl)piperidine-1-carbonyl)piperidin-4-yl)methyl)piperidin-1-yl)-2-(2,6-dioxopiperidin-3-yl)isoindoline-1,3-dione] |  |  | < 1000 nM | < 1000 nM | > 90% | 10 to 50 nM |
